Converted amounts (≈) assume the structure as drawn. “Also recorded” adds a separate entry of the source.
Assays:
[1] = system: Plasmodium berghei (sensitive strain); assay: Blood schizontocidal activity against Plasmodium berghei infection in mice; type: in vivo; details: P. berghei infected mice, oral, 4 doses D0 to D+3, suppressive = parasitaemia suppressed on D+4 and D+7, curative = cleared up to 28 days
Experimental: (§1) Blood schizontocidal activity evaluation of potential antimalarial compounds against Plasmodium berghei (sensitive strain) and P. yoelii nigeriensis (resistant strain) infection in mice.
(§2) Test Procedure: On day ‘0’, groups of 6 mice each were inoculated, intraperitoneally, with 1×10^7 infected-erythrocytes, from a donor mouse. Four hours later, mice were administered test compounds/chloroquine primaquine/vehicle, orally. A total of 4 doses were given on days D‘0’, D+1, D+2, and D+3. The tail blood smears were made on day D+4 and D+7, stained with Geimsa, and examined microscopically. […] The results of blood-schizontocidal activities for the synthesized compounds are given below in Table 1.

[2] = system: P. falciparum; assay: In vitro antimalarial activity against P. falciparum; type: cell-based
Experimental: Protocol: Different drug dilutions [test compounds and chloroquine (positive control)] were prepared in complete RPMI (medium RPMI 1640+10% AB^+ human serum; CRPMI). Fifty μL of each dilution was transferred to the respective well of a microtiter plate in triplicates. Parasitized erythrocytes (PE; mainly rings; 4% parasitaemia; 5% hematokrit) were added to each well. Volume in each well was made up to 200 μL with CRPMI. The plates were incubated at 37° C. in a candle jar. After 24-48 h of incubation, thin smears from each well were made and stained with Giemsa. The number of PE/10,000 cells was counted. […] Using non-linear regression analysis, the IC50 of the test compounds was then calculated.

[3] = system: Mastomys coucha; assay: In vivo methemoglobin (MetHb) toxicity in Mastomys coucha; details: for (%) Methemoglobin (MetHb) Increase: Mastomys coucha, blood 4 h after administration
Experimental: The protocol used is as follows: In vivo MetHb-inducing properties estimation was carried out in Mastomys coucha, a rapid rodent animal model using protocols reported earlier (Srivastava, P., Singh, S., Jain, G. K., Puri, S. K., Pandey, V. C. Ecotox. Environ. Safety. 2000, 45, 236-239). Briefly; six animals per group of both sexes, 2-3 months old and body weight between 40-50 g were used for the present investigation. Drug was administered intraperitoneally (ip) or orally at various dosage for single day/three consecutive days. Primaquine is used as the standard drug for the test. It is known that primaquine is readily absorbed from the gastro-intestinal tract and peak plasma concentration reaches within 3 h and falls within an apparent elimination half time of 6 h. Keeping the above pharmacokinetic profile in mind, the blood samples were collected after 4 h of drug administration and % increase in MetHb was calculated.

[4] = system: P. yoelii nigeriensis (multidrug resistant strain); assay: Blood schizontocidal activity against chloroquine and mefloquine drug-resistant P. yoelii nigeriensis in mice; type: in vivo; details: oral, 4 doses, listed as R=H, R1=H, R2=C(CH3)3, R3=H
Experimental: as §1, §2

[5] = system: Swiss mice; assay: Acute toxicity studies in Swiss mice; type: in vivo
Experimental: A group of ten mice with equal ratio of male and female were subjected to a single dose of 5, 50, 150 and 450 mg/kg.

[6] = cited from earlier work

Question: Which “Biological activity at (mg/kg/days × 4)” value ([1]; listed as 1) does the source give for `COc1cc(NC(C)CCCN)c2nc(C(C)(C)C)ccc2c1` (stereo not shown) [Example 43, N^8-(4-Amino-1-methylbutyl)-2-tert-butyl-6-methoxy-8-quinolinamine] here?
Answer: curative at a dose of 10 mg/kg

Question: And the “Biological activity at (mg/kg/days × 4)” value ([1]; listed as R=H, R1=H, R2=C(CH3)3, R3=H)?
Answer: Curative at 10 mg/kg

Question: What about the IC50 ([2]; Plasmodium falciparum, Erythrocyte, read-out: P. falciparum (IC50)) of the same compound?
Answer: 0.0391 µg/mL (≈ 0.124 µM)

Question: What about the “(%) Methemoglobin (MetHb) Increase” value ([3]; 15 mg/kg/day x 4 days (ip)) of the same compound?
Answer: 0%

Question: What about the “(%) Methemoglobin (MetHb) Increase” value ([3]; 15 mg/kg/day x 4 days (oral)) of the same compound?
Answer: 0%

Question: And the “(%) Methemoglobin (MetHb) Increase” value ([3]; 50 mg/kg (single dose) (ip))?
Answer: 0%

Question: What about the “(%) Methemoglobin (MetHb) Increase” value ([3]; 50 mg/kg (single dose) (oral)) of the same compound?
Answer: 0%

Question: What about the “methemoglobin (MetHb) toxicity (result in words)” value ([3]; in vivo) of the same compound?
Answer: completely devoid of this toxic manifestation in vivo

Question: And the “Biological activity at (mg/kg/days × 4)” value [4]?
Answer: Curative at 100 mg/kg; also recorded: Curative at 50 mg/kg; also recorded: Curative at 25 mg/kg; also recorded: Suppressive at 10 mg/kg

Question: What about the “acute toxicity (result in words)” value ([5]; single dose) of the same compound?
Answer: completely safe at 50 mg/kg

Question: What about the “% Mortality Female” value ([5]; single dose 5 mg/kg) of the same compound?
Answer: 0%

Question: What about the “% Mortality Male” value ([5]; single dose 5 mg/kg) of the same compound?
Answer: 0%

Question: And the “% Mortality Total” value ([5]; single dose 5 mg/kg)?
Answer: 0%

Question: And the “% Mortality Female” value ([5]; single dose 50 mg/kg)?
Answer: 0%

Question: What about the “% Mortality Male” value ([5]; single dose 50 mg/kg) of the same compound?
Answer: 0%

Question: What about the “% Mortality Total” value ([5]; single dose 50 mg/kg) of the same compound?
Answer: 0%

Question: What about the “% Mortality Female” value ([5]; single dose 150 mg/kg) of the same compound?
Answer: 0%

Question: And the “% Mortality Male” value ([5]; single dose 150 mg/kg)?
Answer: 0%

Question: And the “% Mortality Total” value ([5]; single dose 150 mg/kg)?
Answer: 0%

Question: What about the “% Mortality Female” value ([5]; single dose 450 mg/kg) of the same compound?
Answer: 0%

Question: And the “% Mortality Male” value ([5]; single dose 450 mg/kg)?
Answer: 0%

Question: And the “% Mortality Total” value ([5]; single dose 450 mg/kg)?
Answer: 0%

Question: For `COc1cc(NC(C)CCCN)c2ncccc2c1C1CCCCC1` (stereo not shown) [Example 47, N^8-(4-Amino-1-methylbutyl)-5-cyclohexyl-6-methoxy-8-quinolinamine], which “Biological activity at (mg/kg/days × 4)” value [1] is on record?
Answer: Inactive at 100 mg/kg

Question: For `CCCCCOc1c(OC)cc(NC(C)CCCN)c2nc(C(C)(C)C)cc(CC)c12` (stereo not shown) [Example 54, N^8-(4-Amino-1-methylbutyl)-2-tert-butyl-4-ethyl-6-methoxy-5-pentoxy-8-quinolin-amine], which “Biological activity at (mg/kg/days × 4)” value [1] is on record?
Answer: Curative at 100 mg/kg

Question: With `COc1cc(NC(C)CCCN)c2nc(C3CCCC3)ccc2c1C1CCCC1` (stereo not shown) [Example 48, N^8-(4-Amino-1-methylbutyl)-2,5-dicyclopentyl-6-methoxy-8-quinolinamine] as the compound, how does the “Biological activity at (mg/kg/days × 4)” value [1] read?
Answer: Inactive at 100 mg/kg

Question: For `CCCCCCCCOc1c(OC)cc(NC(C)CCCN)c2nc(C(C)(C)C)cc(CC)c12` (stereo not shown) [Example 55, N^8-(4-Amino-1-methylbutyl)-2-tert-butyl-4-ethyl-6-methoxy-5-octoxy-8-quinolin-amine], which “Biological activity at (mg/kg/days × 4)” value [1] is on record?
Answer: Curative at 100 mg/kg

Question: With `COc1cc(NC(C)CCCN)c2ncccc2c1C1CCCC1` (stereo not shown) [Example 44, N^8-(4-Amino-1-methylbutyl)-5-cyclopentyl-6-methoxy-8-quinolinamine] as the compound, how does the “Biological activity at (mg/kg/days × 4)” value [1] read?
Answer: Inactive at 100 mg/kg

Question: Which “Biological activity at (mg/kg/days × 4)” value ([1]; listed as 17) does the source give for `COc1cc(NC(C)CCCNC(=O)[C@@H](N)CCCCN)c2nc(C(C)(C)C)ccc2c1` (stereo partly drawn) [Example 63, N^1-[4-(2-tert-Butyl-6-methoxy-8-quinolylamino)pentyl]-(2S)-2-6-diaminohexanamide] here?
Answer: suppressive activity at 10 mg/kg

Question: What about the “Biological activity at (mg/kg/days × 4)” value ([1]; listed as R=H, R1=H, R2=C(CH3)3, R3=S-(Lys)) of the same compound?
Answer: Suppressive at 10 mg/kg

Question: With `COc1cc(NC(C)CCCN)c2nc(C34CC5CC(CC(C5)C3)C4)ccc2c1` (stereo not shown) [Example 45, N^8-[4-Amino-1-methylbutyl)-2-adamantyl-6-methoxy-8-quinolinamine] as the compound, how does the “Biological activity at (mg/kg/days × 4)” value [1] read?
Answer: Inactive at 100 mg/kg

Question: With `COc1cc(NC(C)CCCN)c2ncccc2c1C(C)C` (stereo not shown) [Example 46, N^8-(4-Amino-1-methylbutyl)-5-isopropyl-6-methoxy-8-quinolinamine] as the compound, how does the “Biological activity at (mg/kg/days × 4)” value [1] read?
Answer: Inactive at 100 mg/kg

Question: For `COc1cc(NCCC(C)CN)c2nc(C(C)(C)C)cc(C)c2c1OC` (stereo not shown) [Example 56, N^8-(4-Amino-3-methylbutyl)-2-tert-butyl-5,6-methoxy-4-methyl-8-quinolinamine], which “Biological activity at (mg/kg/days × 4)” value [1] is on record?
Answer: Curative at 100 mg/kg

Question: With `COc1cc(NC(C)CCCN)c2nc(C3CCCCC3)ccc2c1C1CCCCC1` (stereo not shown) [Example 50, N^8-(4-Amino-1-methylbutyl)-2,5-dicyclohexyl-6-methoxy-8-quinolinamine] as the compound, how does the “Biological activity at (mg/kg/days × 4)” value [1] read?
Answer: Inactive at 100 mg/kg

Question: Which “Biological activity at (mg/kg/days × 4)” value [1] does the source give for `COc1cc(NC(C)CCCNC(=O)[C@@H](N)CCCN)c2nc(C(C)(C)C)ccc2c1` (stereo partly drawn) [Example 61, N^1-[4-(2-tert-Butyl-6-methoxy-8-quinolylamino)pentyl]-(2S)-2,5-diaminopentamide] here?
Answer: Curative at 100 mg/kg

Question: With `COc1cc(NC(C)CCCN)c2ncccc2c1` (stereo not shown) [Primaquine, N^8-(4-amino-1-methylbutyl)-6-methoxy-8-quinolinamine, reference compound] as the compound, how does the “P. falciparum (IC50)” value ([2]; parasitized erythrocytes, 24-48 h incubation) read?
Answer: Not active

Question: What about the “(%) Methemoglobin (MetHb) Increase” value ([3]; 15 mg/kg/day x 4 days (ip)) of the same compound?
Answer: 3.38%

Question: And the “(%) Methemoglobin (MetHb) Increase” value ([3]; 15 mg/kg/day x 4 days (oral))?
Answer: 3.57%

Question: And the “(%) Methemoglobin (MetHb) Increase” value ([3]; 50 mg/kg (single dose) (ip))?
Answer: 3.38%

Question: What about the “(%) Methemoglobin (MetHb) Increase” value ([3]; 50 mg/kg (single dose) (oral)) of the same compound?
Answer: 2.58%

Question: What about the “time to peak plasma concentration” value ([6]; absorbed from the gastro-intestinal tract, known property) of the same compound?
Answer: ≤ 3 h

Question: And the half-life ([6]; known property of the drug)?
Answer: 4 to 6 h

Question: And the “apparent elimination half time” value ([6]; known property)?
Answer: 6 h

Question: For `COc1cc(NC(C)CCCN)c2nc(C(C)C)ccc2c1C(C)C` (stereo not shown) [Example 49, N^8-(4-Amino-1-methylbutyl)-2,5-diisopropyl-6-methoxy-8-quinolinamine], which “Biological activity at (mg/kg/days × 4)” value [1] is on record?
Answer: Inactive at 100 mg/kg

Question: For `COc1cc(NC(C)CCCNC(=O)[C@H](C)N)c2nc(C(C)(C)C)ccc2c1` (stereo partly drawn) [Example 64, N^1-[4-(2-tert-Butyl-6-methoxy-8-quinolylamino)pentyl]-(2S)-2-aminopropanamide], which “Biological activity at (mg/kg/days × 4)” value ([1]; listed as 18) is on record?
Answer: suppressive activity at 10 mg/kg

Question: What about the “Biological activity at (mg/kg/days × 4)” value ([1]; listed as R=H, R1=H, R2=C(CH3)3, R3=S-(Ala)) of the same compound?
Answer: Suppressive at 10 mg/kg

Question: For `COc1cc(NC(C)CCCN)c2nc(C(C)(C)C)ccc2c1OC` (stereo not shown) [Example 51, N^8-(4-Amino-1-methylbutyl)-2-tert-butyl-5,6-dimethoxy-8-quinolinamine], which “Biological activity at (mg/kg/days × 4)” value [1] is on record?
Answer: Inactive at 100 mg/kg
